Assay in all cases: NCI-60 cell line screen, 48 h
The test system of assay [1] is M19-MEL.
The test system of assay [2] is DLD-1.
Assay [3] concerns DMS-114.
For assay [4], the system named is LXFL 529.
Assay [5] deals with DMS-273.
Assay [6] relates to SNB-78.
Assay [7] relates to XF498.
Assay [8] has as its system HOP-18.
Assay [9] has as its system RXF 631.

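The compound was tested at five concentrations on cells cultured in 96-well plates, with a 48-hour exposure period. Abbreviation: GI50, concentration required for 50% inhibition of growth.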 The source made the active and inactive calls. Cut-off read from the data, not from the text of the source: active = GI50 up to about 1.1 µM and inactive = higher.

In the case of `CC(/C(=N\Nc1ccccc1)c1ccc(O)cc1)C1C(=O)Oc2ccccc21` (stereo not given), the GI50 in assay [1], in [2], in [3], in assay [4] and in assay [5] was > 100 µM (inactive) in each case.

`CC(=O)NC(C=O)C(O[C@H](C)C(=O)NC(C)C(=O)NC(CCC(N)=O)C(=O)OCc1ccccc1)C(O)C(O)COC(=O)CCNc1c2ccccc2nc2cccc([N+](=O)[O-])c12` (stereo not given in full): the GI50 in [1] was 1.66 µM (inactive); in assay [6], 2.58 µM (inactive); in [2], 3.41 µM (inactive); in assay [7], 1.83 µM (inactive); in [3], 2.81 µM (inactive); in [8], 4.3 µM (inactive). The GI50 in [4] is 1.79 µM (inactive); in assay [5], 2.69 µM (inactive).

`CCN(CC)C(=S)S` [DITIOCARB SODIUM]: the GI50 was 0.439 µM (active) in assay [1]; > 100 µM (inactive) in assay [6]; 3.27 µM (inactive) in assay [9]; 88.5 µM (inactive) in assay [2]; 0.221 µM (active) in [7]; 0.0968 µM (active) in assay [3]. Moreover, the GI50 in [8] and in assay [4] was > 100 µM (inactive) each time.

As to `Cn1c(=O)nc2n(-c3cccc(F)c3)c3ccccc3nc-2c1=O`, the GI50 is 2.11 µM (inactive) in assay [1]; 23.5 µM (inactive) in assay [6]; 25.3 µM (inactive) in assay [2]; 34.1 µM (inactive) in assay [8]; 37.8 µM (inactive) in assay [4]; 13.8 µM (inactive) in assay [5].

In the case of `COc1ccc(CCC2c3cc(OC)c(OC)cc3CCN2C)cc1OC` (stereo not given), the GI50 in assay [1], in assay [6], in assay [2], in assay [3], in assay [8] and in [4] was > 100 µM (inactive) each time.

As for `C[N+]1=C(c2cccnc2/C=N/O)OCC1(C)C`, the GI50 in [1], in assay [6], in assay [2], in assay [7], in assay [3] and in assay [8] was > 100 µM (inactive) in each case. Also, the GI50 in assay [4] and in assay [5] was > 100 µM (inactive) in each case.

In the case of `CC(=O)OCC1OC(N2C(=O)[C@@H](Oc3ccccc3)[C@H]2/C=C/c2ccccc2)C(OC(C)=O)C(OC(C)=O)C1OC(C)=O` (stereo not given in full), the GI50 in [1], in assay [6], in assay [2], in assay [7], in [3] and in [4] was > 100 µM (inactive) each time. For the same molecule, the GI50 in assay [5] was > 100 µM (inactive).

As for `O=C(CO[N+](=O)[O-])OC/C=C/c1ccccc1`, the GI50 in [1], in assay [2], in assay [3], in assay [4] and in assay [5] was > 100 µM (inactive) each time.

With `C=C1C(=O)O[C@@H]2C[C@@H](C)[C@@H]3C=CC(=O)[C@@]3(C)[C@@H](OC(=O)CC(=O)O[C@H]3[C@@H]4C(=C)C(=O)O[C@@H]4C[C@@H](C)[C@@H]4C=CC(=O)[C@]43C)[C@H]12`, the GI50 in [1] was 0.0141 µM (active); in assay [6], 0.0153 µM (active); in [9], 0.0989 µM (active); in assay [2] it was < 0.01 µM (active); in [7], 0.0213 µM (active); in [3], 0.0312 µM (active). Moreover, the GI50 was 0.11 µM (active) in [8], < 0.0117 µM (active) in [4] and 0.0336 µM (active) in [5].

Turning to `Cc1nnc(N/N=C2/C(=O)Nc3c(Cl)cc(Cl)cc32)n1N`, the GI50 in assay [1] was > 100 µM (inactive); in assay [6], > 100 µM (inactive); in assay [2], > 100 µM (inactive); in [8], 73.1 µM (inactive); in assay [4] it was > 100 µM (inactive).

In the case of `CN1C(=O)CC(CC(=O)C2CCCCC2=O)CC1=O` (stereo not given), the GI50 in [1], in assay [6], in assay [2], in assay [7], in assay [3] and in assay [8] was > 100 µM (inactive) in each case. Moreover, the GI50 in assay [4] and in assay [5] was > 100 µM (inactive) in each case.

Consider `COc1ccc(C2c3cc(OC)c(OC)cc3C(Cc3ccc([N+](=O)[O-])cc3)C2c2ccc([N+](=O)[O-])cc2)cc1OC` (stereo not given), for which the GI50 in [1] was > 100 µM (inactive); in assay [6] it was > 100 µM (inactive); in assay [9] it was > 100 µM (inactive); in assay [2], > 100 µM (inactive); in assay [7] it was 48.9 µM (inactive); in [3], > 100 µM (inactive). The GI50 in [4] and in [5] was > 100 µM (inactive) each time.

For the molecule `CN1Cc2c(nc(-c3ccc(Br)cc3)c[n+]2[O-])N(C)C1`, the GI50 in [6], in assay [2], in assay [7], in assay [3], in assay [8] and in assay [4] was > 100 µM (inactive) throughout. Moreover, the GI50 in assay [5] was > 100 µM (inactive).

For the molecule `COc1ccc2[nH]c3c(c2c1)[C@H](c1ccccc1)C[C@@H]1C(=O)N(c2ccccc2)C(=O)[C@H]31`, the GI50 is > 100 µM (inactive) in assay [1]; 44.5 µM (inactive) in assay [6]; 45.1 µM (inactive) in assay [9]; 59.7 µM (inactive) in assay [2]; 23 µM (inactive) in assay [7]; 29.1 µM (inactive) in [3]. In addition, the GI50 is 2.54 µM (inactive) in assay [8], 43.2 µM (inactive) in assay [4] and 47.8 µM (inactive) in [5].

For the molecule `N#CC(C#N)=c1[nH]c2cccc3c2-c2c(cccc2c3=C(C#N)C#N)[nH]1`, the GI50 in [6] was 57.4 µM (inactive); in assay [2], > 100 µM (inactive); in assay [7] it was > 100 µM (inactive); in assay [3], > 100 µM (inactive); in assay [8], > 100 µM (inactive); in assay [4] it was > 100 µM (inactive). For the same molecule, the GI50 in assay [5] was > 100 µM (inactive).

In the case of `CN(C)/C=N/c1nc2ncn(CCOC(=O)c3ccccc3)c2c(=O)[nH]1`, the GI50 in [1], in [6], in assay [9], in assay [2], in assay [3] and in [8] was > 100 µM (inactive) throughout. Further, the GI50 in assay [4] and in assay [5] was > 100 µM (inactive) in each case.

On to `Brc1ccc(N2C[N+](c3ccc(Br)cc3)=NC(c3ccccc3)=N2)cc1`, for which the GI50 in assay [1] is 14.3 µM (inactive); in assay [6], 31.2 µM (inactive); in assay [2], 12.6 µM (inactive); in assay [7] it was 20.6 µM (inactive); in assay [3], 19.5 µM (inactive); in [8] it was 14.8 µM (inactive). For the same molecule, the GI50 in [4] is 11.1 µM (inactive); in [5] it was 8.65 µM (inactive).

In the case of `Sc1ncnc2nc[nH]c12` [MERCAPTOPURINE ANHYDROUS], the GI50 is 69 µM (inactive) in [1]; 90.4 µM (inactive) in [6]; 2.08 µM (inactive) in [2]; 5.04 µM (inactive) in assay [7]; 1.67 µM (inactive) in assay [3]; 192 µM (inactive) in [8]. Further, the GI50 is 653 µM (inactive) in assay [4] and 0.426 µM (active) in assay [5].

Regarding `COc1cccc(/C=C/c2cc(OC)c(OC)c(OC)c2)c1`, the GI50 in assay [1] was 70.1 µM (inactive); in assay [6], 21.8 µM (inactive); in assay [9] it was 23.7 µM (inactive); in assay [2] it was 18.3 µM (inactive); in assay [7], 33.7 µM (inactive); in assay [3] it was 24.9 µM (inactive). Further, the GI50 is 61.7 µM (inactive) in assay [4] and 27.8 µM (inactive) in [5].

With `O=C(c1ccc(Cl)cc1Cl)C1[C@H]2C(=O)N(c3ccc(Cc4ccc(N5C(=O)[C@@H]6ON(c7ccccc7)C(C(=O)c7ccc(Cl)cc7Cl)[C@@H]6C5=O)cc4)cc3)C(=O)[C@H]2ON1c1ccccc1` (stereo not given in full), the GI50 in assay [1], in [6], in assay [9], in assay [2], in [3] and in assay [8] was > 50 µM (inactive) in each case. Also, the GI50 in assay [4] and in assay [5] was > 50 µM (inactive) throughout.

As for `CC1C=C(CCCCCCCCCCCC[C@@H](O)[C@@H]2CC[C@@H]([C@@H]3CC[C@@H](C(O)CCCCCCCCCCCCC4=C[C@H](C)OC4=O)O3)O2)C(=O)O1` (stereo not given in full), the GI50 was 31.2 µM (inactive) in assay [1]; > 100 µM (inactive) in assay [2]; 17.9 µM (inactive) in assay [7]; 0.0697 µM (active) in [3]; > 100 µM (inactive) in assay [8]; 17.1 µM (inactive) in assay [4]. Moreover, in assay [5], the GI50 was > 41 µM (inactive).

For the molecule `Cc1ccc(NC(=O)CC2SC(=N)NC2=O)cc1C` (stereo not given), the GI50 in [6], in assay [9], in assay [2], in assay [7] and in assay [4] was > 100 µM (inactive) throughout.

`COCC(O)Cn1ccnc1[N+](=O)[O-]` (stereo not given) [MISONIDAZOLE]: the GI50 in [1], in [6], in assay [7], in assay [3] and in [5] was > 100 µM (inactive) each time.

Take `COC(=O)CC1C[C@H](C#N)N(C(=O)c2ccccc2)C[C@@H]1CC[N+](=O)[O-]` (stereo not given in full): the GI50 in assay [1], in assay [6], in assay [2], in [7], in assay [8] and in assay [4] was > 100 µM (inactive) throughout. The GI50 in assay [5] was > 100 µM (inactive).
